Measured values from US20230390251A1, “METHODS OF TREATING RIBONUCLEOTIDE REDUCTASE-RELATED DISEASES WITH A RIBONUCLEOTIDE REDUCTASE INHIBITOR” (TAIHO PHARMACEUTICAL CO., LTD., priority 2020, published 2023).

How the values were obtained:
CFPAC-1 cells = assay: Caspase-Glo 3/7 caspase induction assay in CFPAC-1 cells treated with siRNA against SLFN11; type: cell-based; conditions: 10 micro mol/L, 24 h; CFPAC-1 cells transfected with siRNA against SLFN11
Method: (§1) A673 cells, NCI-H460 cells and CFPAC-1 cells were transfected with 1 nM siRNAs for 24 h using Lipofectaminet®RNAiMAX Reagent (Thermo Fisher Scientific Inc.) and then re-seeded onto a 96-well plate for cell proliferation assay and caspase induction assay and onto dishes for immunoblotting analysis. siRNAs were obtained from Thermo Fisher Scientific Inc. as follows: Silencer® Select Negative Control #1 siRNA (#4390843 used as siControl), SLFN11 Silencer® Select Pre-designed siRNA (#s40703 used as siSLFN11-1, #s40704 as siSLFN11-2, and #s40702 as siSLFN11-3).
(§2) Caspase induction assay was performed in accordance with conventional methods, available in Hasako., et al., ibid. Briefly, the cells with siRNAs for 24 h were seeded onto 96 well plate, incubated for 24 h, and then treated with Compound A for 24 h. Caspase induction was detected by using the Caspase-Glo 3/7 assay (Promega).

[1] = test system: 11 sarcoma cell lines listed in Table 1; assay: Cell proliferation assay (CellTiter-Glo) in 11 sarcoma cell lines, correlated with SLFN11 mRNA expression; type: cell-based; conditions: 100 micro mol/L Compound A, 3 days of exposure, Pearson's correlation (P<0.05)
Method: Cell proliferation assay was performed in accordance with conventional methods, available in Hasako. S., et al. Mol Cancer Ther 17, 1648-1658 (2018). Briefly, cells were plated and incubated for 1 day, followed by 3 days of exposure to the compound. After exposure to Compound A, viable cells were detected by using the CellTiter-Glo luminescent cell viability assay (Promega). The experiment was performed in triplicates.
Correlation analysis of SLFN11 expression and Compound A cytotoxicity was performed using Pearson's correlation coefficient (P<0.05) in JMP 13 software. The gene expression data of cell lines were available online CCLE (http://www.broadinstitute.org/ccle/home). Compound A cytotoxicity data from 11 cell lines in Table 1 were used for correlation analysis (data for correlation was not shown).
The correlation between SLFN11 mRNA expression and the relative growth percent of cells at 100 micro mol/L treatment by Compound A was analyzed in 11 sarcoma cell lines listed in Table 1.

[2] = target: T1, Ribonucleotide reductase (RNR) (Homo sapiens, UniProt P23921+P31350); conditions: from the literature (NPL 7; PL 1); cited from earlier work
T1 sequence (P23921 1-792): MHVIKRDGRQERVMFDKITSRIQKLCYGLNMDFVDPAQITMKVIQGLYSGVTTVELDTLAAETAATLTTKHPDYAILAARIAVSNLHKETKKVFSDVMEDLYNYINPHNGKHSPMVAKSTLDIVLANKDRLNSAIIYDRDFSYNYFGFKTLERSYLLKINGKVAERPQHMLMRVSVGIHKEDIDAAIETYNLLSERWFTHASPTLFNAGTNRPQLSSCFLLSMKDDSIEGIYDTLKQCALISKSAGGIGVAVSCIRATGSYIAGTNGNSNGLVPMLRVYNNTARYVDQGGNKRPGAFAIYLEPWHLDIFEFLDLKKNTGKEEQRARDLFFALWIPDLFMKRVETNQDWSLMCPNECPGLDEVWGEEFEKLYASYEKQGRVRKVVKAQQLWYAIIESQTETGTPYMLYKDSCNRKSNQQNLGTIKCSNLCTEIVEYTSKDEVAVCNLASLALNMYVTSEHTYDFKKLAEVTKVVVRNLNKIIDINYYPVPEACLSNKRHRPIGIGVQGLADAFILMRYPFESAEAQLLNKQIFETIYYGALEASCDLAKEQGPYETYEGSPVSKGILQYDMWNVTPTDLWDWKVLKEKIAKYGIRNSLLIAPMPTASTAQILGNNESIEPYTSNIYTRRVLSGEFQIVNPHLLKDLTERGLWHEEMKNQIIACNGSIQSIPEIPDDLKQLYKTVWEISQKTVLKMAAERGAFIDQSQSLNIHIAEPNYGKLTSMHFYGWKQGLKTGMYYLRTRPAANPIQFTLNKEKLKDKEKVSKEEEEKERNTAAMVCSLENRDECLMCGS
T1 sequence (P31350 1-389): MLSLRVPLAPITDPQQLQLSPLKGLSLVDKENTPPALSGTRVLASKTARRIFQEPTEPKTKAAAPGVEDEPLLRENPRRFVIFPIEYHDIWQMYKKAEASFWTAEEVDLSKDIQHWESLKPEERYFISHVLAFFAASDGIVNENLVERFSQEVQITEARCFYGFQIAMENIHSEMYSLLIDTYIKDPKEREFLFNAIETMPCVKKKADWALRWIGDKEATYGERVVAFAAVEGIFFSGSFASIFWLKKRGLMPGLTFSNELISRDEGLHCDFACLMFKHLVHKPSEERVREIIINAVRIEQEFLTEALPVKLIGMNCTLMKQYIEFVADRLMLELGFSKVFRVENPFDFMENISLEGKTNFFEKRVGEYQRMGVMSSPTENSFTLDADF

A673 cells [3] = assay: Caspase-Glo 3/7 caspase induction assay in A673 cells treated with siRNA against SLFN11; type: cell-based; conditions: 10 micro mol/L, 24 h; A673 cells transfected with siRNA against SLFN11
Method: as §1, §2

NCI-H460 cells [4] = assay: Cell proliferation assay in NCI-H460 cells treated with siRNA against SLFN11; type: cell-based; conditions: non-small cell lung cancer cell line NCI-H460, siSLFN11 vs siControl, 3 days of exposure
Method: as §1
(§3) Cell proliferation assay was performed in accordance with conventional methods, available in Hasako, et al., ibid. Briefly, cells treated with siRNAs for 24 h were plated onto 96 well plate and incubated for 24 h, followed by 3 days of exposure to the compound A. After compound exposure, viable cells were detected by using the CellTiter-Glo luminescent cell viability assay (Promega).

NCI-H460 cells [5] = assay: Caspase-Glo 3/7 caspase induction assay in NCI-H460 cells treated with siRNA against SLFN11; type: cell-based; conditions: 10 micro mol/L, 24 h; NCI-H460 cells transfected with siRNA against SLFN11
Method: as §1, §2

A673 cells [6] = assay: Cell proliferation assay in A673 cells treated with siRNA against SLFN11; type: cell-based; conditions: A673 Ewing sarcoma cells, siSLFN11 vs siControl, 3 days of exposure
Method: as §1, §3

Compound: Cc1ccc(F)c([C@@H](C)[C@H](NS(=O)(=O)c2ccc(Cl)cc2C(N)=O)c2n[nH]c(=O)o2)c1C [Compound A, 5-chloro-2-(N-((1S,2R)-2-(6-fluoro-2,3-dimethylphenyl)-1-(5-oxo-4,5-dihydro-1,3,4-oxadiazol-2-yl)propyl)sulfamoyl)benzamide]
- compound-induced caspase-3/7 activation after SLFN11 knockdown (CFPAC-1 cells): suppression
- correlation between SLFN11 mRNA expression and relative cell growth (%) [1]: a significant correlation
- RNR inhibitory activity [2]: potent
- compound-induced caspase-3/7 activation after SLFN11 knockdown (A673 cells [3]): suppression
- effect of SLFN11 knockdown with siRNA on the cytotoxic effect (NCI-H460 cells [4]): SLFN11 knockdown significantly suppressed the cytotoxic effect
- compound-induced caspase-3/7 activation after SLFN11 knockdown (NCI-H460 cells [5]): suppression
- effect of SLFN11 knockdown with siRNA on the cytotoxic effect (A673 cells [6]): SLFN11 knockdown significantly suppressed the cytotoxic effect
